In ChEMBL document CHEMBL5712922, “Synergistic effects of type I PRMT and PARP inhibitors against non-small cell lung cancer cells” (Clin Epigenetics, 2021) one finds viability data, which are given here for 64 compounds.

Where a name gives a salt, the structure may show the parent alone. Residues, ends and D or L forms follow the SMILES beside them.

For this assay, the system named is A549. The assay can be described thus: Antiproliferative against human A549 cells assessed as viable cells pretreated with MS023 for 24 hrs followed by compound addition at 10 uM measured after for 24 hrs relative to control. As to conditions: A549, 24 h, read-out: Activity.
In the case of `C/C(=N\NC(=O)c1cccc(S(=O)(=O)N2CCOCC2)c1)c1cc(Cl)ccc1O`, the viability at 10 µM is 54.2%.
As for `Cn1c(/C=C/C(=O)NO)ccc1/C=C/C(=O)c1cccc(F)c1`, the viability at 10 µM worked out at 54.2%.
The figure for `O=C(Nc1ccccc1-c1cn2c(CN3CCNCC3)csc2n1)c1cnc2ccccc2n1` is 54.2%.
Consider `CC(C)C[C@H](NC(=O)[C@H](Cc1ccccc1)NC(=O)[C@H](CCC(N)=O)NC(=O)[C@H](Cc1ccc(O)cc1)NC(=O)[C@H](C)NC(=O)CNC(=O)[C@H](CCCCN)NC(=O)[C@H](Cc1c[nH]c2ccccc12)NC(=O)[C@@H](NC(=O)[C@H](Cc1c[nH]c2ccccc12)NC(=O)[C@H](CCCCN)NC(=O)CNC(=O)[C@H](CC(N)=O)NC(=O)[C@H](CCC(=O)O)NC(=O)[C@H](Cc1c[nH]c2ccccc12)NC(=O)[C@@H](NC(=O)[C@H](Cc1c[nH]c2ccccc12)NC(=O)[C@H](CO)NC(=O)CNC(=O)[C@@H]1CCCN1C(=O)[C@H](Cc1c[nH]c2ccccc12)NC(=O)[C@H](CCC(N)=O)NC(=O)[C@H](Cc1ccccc1)NC(=O)CNC(=O)[C@@H](N)Cc1cnc[nH]1)[C@@H](C)O)[C@@H](C)O)C(=O)N[C@@H](CCCCN)C(=O)NCC(=O)NCC(=O)NCC(=O)NCC(=O)N[C@@H](CO)C(=O)N[C@@H](CCCNC(=N)N)C(=O)N[C@@H](CCCNC(=N)N)C(=O)N[C@@H](CCCNC(=N)N)C(=O)N[C@@H](CCCNC(=N)N)C(=O)N[C@@H](CCCNC(=N)N)C(=O)N[C@@H](CCCNC(=N)N)C(=O)N[C@@H](CCCNC(=N)N)C(=O)N[C@@H](CCCNC(=N)N)C(=O)N[C@@H](CCCNC(=N)N)C(=O)O` (H-HGFQWPGSWTWENGKWTWKGAYQFLKGGGGSRRRRRRRRR-OH), for which the viability at 10 µM amounted to 54.2%.
For the compound `COc1cc2c(cc1O)CC[C@@H]1[C@@H]2CC[C@]2(C)[C@@H](O)CC[C@@H]12` [2-METHOXYESTRADIOL], the viability at 10 µM was found to be 54.2%.
In the case of `NC(=O)c1cccc(N)c1` [3-AMINOBENZAMIDE] it was 54.2%; in that of `CN(C)Cc1c(C(=O)NCCOc2ccc(C(=O)NO)cc2)oc2ccccc12` [ABEXINOSTAT], 54.2%; in that of `COc1cc(Nc2ncc3c(n2)-c2ccc(Cl)cc2C(c2c(F)cccc2OC)=NC3)ccc1C(=O)O` [ALISERTIB], 54.2%.
Regarding `Cc1csc(-c2nnc(Nc3ccc(Oc4ncccc4-c4ccnc(N)n4)cc3)c3ccccc23)c1` [AMG-900], the viability at 10 µM was determined as 54.2%.
As to `CCCCCCCCCCCCCCCc1cccc(O)c1C(=O)O` [ANACARDIC ACID], the viability at 10 µM came out at 54.2%.
The figure for `COc1cc(OC)c2c(=O)[nH]c(-c3cc(C)c(OCCO)c(C)c3)nc2c1` [APABETALONE] is 54.2%.
Turning to `CC(C)[C@H](C(=O)Nc1ccc(C(=O)NO)cc1)c1ccccc1` [AR-42], the viability at 10 µM was determined as 54.2%.
With `O=C(Nc1c[nH]nc1-c1nc2ccc(CN3CCOCC3)cc2[nH]1)NC1CC1` [AT-9283], the viability at 10 µM came to 54.2%.
For the compound `Nc1ncn([C@@H]2O[C@H](CO)[C@@H](O)[C@H]2O)c(=O)n1` [AZACITIDINE], the viability at 10 µM was 54.2%.
`Cc1cc(Nc2nc(N[C@@H](C)c3ncc(F)cn3)ncc2Cl)[nH]n1` [AZD-1480]: the viability at 10 µM was 54.2%.
For `CCS(=O)(=O)N1CC(CC#N)(n2cc(-c3ncnc4[nH]ccc34)cn2)C1` [BARICITINIB], the viability at 10 µM turned out to be 54.2%.
For `O=C(/C=C/c1cccc(S(=O)(=O)Nc2ccccc2)c1)NO` [BELINOSTAT], the viability at 10 µM amounted to 54.2%.
With `Cc1sc2c(c1C)C(c1ccc(Cl)cc1)=N[C@@H](CC(=O)Nc1ccc(O)cc1)c1nnc(C)n1-2` [BIRABRESIB], the viability at 10 µM is 54.2%.
In the case of `Cc1cn([C@H]2O[C@@H](CO)[C@H](O)[C@H]2F)c(=O)[nH]c1=O` [CLEVUDINE] it was 54.2%; in that of `C#Cc1cccc(Nc2ncnc3cc(OC)c(OCCCCCCC(=O)NO)cc23)c1` [CUDC-101], 54.2%.
Consider `Cc1nc(N)sc1-c1ccnc(Nc2ccc(N3CCOCC3)cc2)n1` [CYC-116], for which the viability at 10 µM is 54.2%.
`Nc1ccn([C@@H]2O[C@H](CO)[C@@H](O)[C@@H]2O)c(=O)n1` [CYTARABINE]: the viability at 10 µM stood at 54.2%.
In the case of `O=C(/C=C/c1ccc(CN(CCO)CCc2c[nH]c3ccccc23)cc1)NO` [DACINOSTAT] it was 54.2%; in that of `CO[C@@H](C(=O)N1Cc2[nH]nc(NC(=O)c3ccc(N4CCN(C)CC4)cc3)c2C1)c1ccccc1` [DANUSERTIB], 54.2%.
In the case of `O=c1ccc2ccc(O)c(O)c2o1` [DAPHNETIN] it was 54.2%.
For the compound `CC[C@@](C)(Nc1ccnc(-c2c[nH]c3ncccc23)n1)C(=O)NCC(F)(F)F` [DECERNOTINIB], the viability at 10 µM amounted to 54.2%.
The figure for `Nc1ncn([C@H]2C[C@H](O)[C@@H](CO)O2)c(=O)n1` [DECITABINE] is 54.2%; for `CCN(CCO)CCCOc1ccc2c(Nc3cc(CC(=O)Nc4cccc(F)c4)[nH]n3)ncnc2c1` [DEFOSBARASERTIB] it is 54.2%; for `Cn1cc(-c2ccc(S(=O)(=O)n3ccc(/C=C/C(=O)Nc4ccccc4N)c3)cc2)cn1` [DOMATINOSTAT] it is 54.2%.
Regarding `O=c1oc2c(O)c(O)cc3c(=O)oc4c(O)c(O)cc1c4c23` [ELLAGIC ACID], the viability at 10 µM was found to be 54.2%.
In the case of `Cc1cc(Nc2cc(N3CCN(C)CC3)nc(/C=C/c3ccccc3)n2)n[nH]1` [ENMD-2076], the viability at 10 µM turned out to be 54.2%.
As to `CCN(CC)C(=O)/C(C#N)=C/c1cc(O)c(O)c([N+](=O)[O-])c1` [ENTACAPONE], the viability at 10 µM came out at 54.2%.
Take `Nc1ccccc1NC(=O)c1ccc(CNC(=O)OCc2cccnc2)cc1` [ENTINOSTAT]: the viability at 10 µM was 54.2%.
Take `Cc1cnc(Nc2ccc(OCCN3CCCC3)cc2)nc1Nc1cccc(S(=O)(=O)NC(C)(C)C)c1` [FEDRATINIB]: the viability at 10 µM is 54.2%.
As for `O=C(Nc1nc2cccc(-c3ccc(CN4CCS(=O)(=O)CC4)cc3)n2n1)C1CC1` [FILGOTINIB], the viability at 10 µM worked out at 54.2%.
As to `COc1ccc(-c2nc(N3CCOCC3)c3sc(CN(C)c4ncc(C(=O)NO)cn4)cc3n2)cn1` [FIMEPINOSTAT], the viability at 10 µM was determined as 54.2%.
The figure for `Cc1cc(Nc2cc(CN3CCOCC3)c3nc(C)c(Cc4ccc(Cl)cc4F)n3n2)n[nH]1` [GANDOTINIB] is 54.2%.
For `Nc1ccn([C@@H]2O[C@H](CO)[C@@H](O)C2(F)F)c(=O)n1` [GEMCITABINE], the viability at 10 µM worked out at 54.2%.
As to `CCN(CC)Cc1ccc2cc(COC(=O)Nc3ccc(C(=O)NO)cc3)ccc2c1` [GIVINOSTAT], the viability at 10 µM was determined as 54.2%.
Consider `CCn1cc(-c2ccnc3[nH]c(-c4cccc(CN(C)C)c4)cc23)c(-c2ccc(NC(=O)N(C)C)cc2)n1` [GSK-1070916], for which the viability at 10 µM was 54.2%.
As for `CCS(=O)(=O)Nc1ccc2c(c1)/C(=C(/Nc1ccc(CN3CCCCC3)cc1)c1ccccc1)C(=O)N2` [HESPERADIN], the viability at 10 µM stood at 54.2%.
On to `Nc1nc(Nc2ccc(S(N)(=O)=O)cc2)nn1C(=O)c1c(F)cccc1F` [JNJ-7706621], for which the viability at 10 µM was found to be 54.2%.
On to `O=C(c1ccc(/C=C/c2n[nH]c3ccccc23)cc1)N1CCNCC1` [KW-2449], for which the viability at 10 µM is 54.2%.
As for `Nc1nc(OCc2cc(Br)cs2)c2[nH]cnc2n1` [LOMEGUATRIB], the viability at 10 µM amounted to 54.2%.
`CO[C@@]12[C@H](COC(N)=O)C3=C(C(=O)C(C)=C(N)C3=O)N1C[C@@H]1N[C@@H]12` [MITOMYCIN]: the viability at 10 µM is 54.2%.
With `NC(=O)c1ncn([C@@H]2O[C@H](CO)[C@@H](O)[C@H]2O)c1O` [MIZORIBINE], the viability at 10 µM was 54.2%.
In the case of `O=C(O)[C@]1(Cc2cccc(Nc3nccs3)n2)CC[C@@H](Oc2cccc(Cl)c2F)CC1` [MK-5108] it was 54.2%; in that of `O=C(O)c1ccc(Nc2ncc3c(n2)-c2ccc(Cl)cc2C(c2c(F)cccc2F)=NC3)cc1` [MLN-8054], 54.2%.
As to `Nc1ccccc1NC(=O)c1ccc(CNc2nccc(-c3cccnc3)n2)cc1` [MOCETINOSTAT], the viability at 10 µM amounted to 54.2%.
In the case of `CCNC(=O)C[C@@H]1N=C(c2ccc(Cl)cc2)c2cc(OC)ccc2-n2c(C)nnc21` [MOLIBRESIB] it was 54.2%; in that of `N#CCNC(=O)c1ccc(-c2ccnc(Nc3ccc(N4CCOCC4)cc3)n2)cc1` [MOMELOTINIB], 54.2%; in that of `CCCCN(Cc1ccc(C(=O)NO)cc1)C(=O)Nc1ccccc1` [NEXTURASTAT A], 54.2%.
In the case of `CCn1cc(C(=O)O)c(=O)c2cc(F)c(N3CCNCC3)cc21` [NORFLOXACIN] it was 54.2%; in that of `CNS(=O)(=O)C[C@H]1CC[C@H](N(C)c2[nH]cnc3nccc2-3)CC1` [OCLACITINIB], 54.2%.
In the case of `CC1COc2c(N3CCN(C)CC3)c(F)cc3c(=O)c(C(=O)O)cn1c23` (centres undefined) [OFLOXACIN] it was 54.2%; in that of `C1=N/C2=N/c3ccc(OCCN4CCCC4)c(c3)COC/C=C/COCc3cccc(c3)C(=C1)N2` [PACRITINIB], 54.2%.
With `Cc1[nH]c2ccccc2c1CCNCc1ccc(/C=C/C(=O)NO)cc1` [PANOBINOSTAT], the viability at 10 µM stood at 54.2%.
In the case of `CCc1cccc(CC)c1NC(=O)N1Cc2[nH]nc(NC(=O)c3ccc(N4CCN(C)CC4)cc3)c2C1` [PHA-680632], the viability at 10 µM came out at 54.2%.
Consider `CC(C)N(C[C@H]1O[C@@H](n2cnc3c(N)ncnc32)[C@H](O)[C@@H]1O)[C@H]1C[C@@H](CCc2nc3cc(C(C)(C)C)ccc3[nH]2)C1` [PINOMETOSTAT], for which the viability at 10 µM was determined as 54.2%.
`COc1cccc2c1C(=O)c1c(O)c3c(c(O)c1C2=O)C[C@@](O)(C(=O)CO)C[C@@H]3O[C@H]1C[C@H](N)[C@H](O[C@@H]2CCCCO2)[C@H](C)O1` [PIRARUBICIN]: the viability at 10 µM is 54.2%.
In the case of `CCCCc1nc2cc(/C=C/C(=O)NO)ccc2n1CCN(CC)CC` [PRACINOSTAT], the viability at 10 µM came to 54.2%.
Take `CCN(CC)CCNC(=O)c1ccc(N)cc1` [PROCAINAMIDE HYDROCHLORIDE]: the viability at 10 µM is 54.2%.
With `O=c1c(O)c(-c2ccc(O)c(O)c2)oc2cc(O)cc(O)c12` [QUERCETIN], the viability at 10 µM is 54.2%.
For `Cn1cc(CNCC2CCN(c3ncc(C(=O)NO)cn3)CC2)c2ccccc21` [QUISINOSTAT HYDROCHLORIDE], the viability at 10 µM was 54.2%.
